Data set [1] deals with T1, RNR containing hRRM2 or p53R2.
T1 construct: In vitro RR activity (IC50) Average; other: compound in 1% DMSO; average of M2/M1 and p53R2/M1; other: compound in 2.5% DMSO; other: compound in dH2O + FeCl3; other: compound in dH2O; Inhi; fused on or other part: 6xHis tag on each subunit
The experiment in a line: In vitro RNR activity assay, both reconstituted RNRs compared (average, selective index, comparison in words). The data set is classed as biochemical, human. Conditions: for IC50: average of M2/M1 and p53R2/M1, read-out: In vitro RR activity (IC50) Average. The method, then: (§1) To reconstitute an active RNR, three 6′His-tag human RNR subunit proteins (hRRM2, p53R2, and hRRM1) were prokaryotically expressed, purified using Ni-resin affinity chromatography, and stored in 50 mM Tris-HCl, pH 7.4, 100 mM KCl at −70° C. according to standard techniques. The purified proteins were subjected to SDS-PAGE analysis. […] To reconstitute RNR, 1 μM of hRRM2 or p53R2 protein was incubated with 0.5 μM hRRM1 protein in multiple-well plates. The reconstitute RNR was tested for RNR activity according to standard techniques.
(§2) Each compound of various concentration was mixed with the purified hRRM2 and hRRM1, or p53R2 and hRRM1 at room temperature for 30 minutes. An enzymatic reaction buffer was then added to the mixture to reach a final volume of 100 μl and incubated at 37° C. for 30 minutes. The reaction buffer contained […] [^3H] CDP, 50 mM HEPES pH 7.2,6 mM DTT, 4 mM MgOAC, 2 mM ATP, 0.05 mM CDP, 100 mM KCl, and 0.24 mM NADPH. […] FeCl3 could be added to the buffer as an iron source. After dephosphorylation, the supernatant of each reaction mixture was analyzed by an HPLC-connected radioactivity detector. IC50 values were calculated by the non-linear regression equations: f (x)=(a-d)/[1+(x/c)^b]+d.
The above-described four SB-HSCs were tested for their inhibitory potency and subunit-selectivity by the in vitro RNR assay in the same manner descried above. The dose-dependent inhibition curves were found.

Data set [2] has as its system tyrosyl radicals of both RNR small subunits (hRRM2, p53R2). The experiment in a line: EPR spectroscopy of tyrosyl radical after incubation with compound. The following applies: protein incubated with compound at room temperature for 30 minutes; EPR at 20 K. The class given is biochemical, human. As to the method: Electron paramagnetic resonance (EPR) spectroscopy was then conducted. Prior to EPR, protein samples were incubated with each of the above-described compounds at room temperature for 30 minutes. EPR parameters were set as following: T=20 K, microwave frequency=9.376 GHz, microwave power=0.5 mW, modulation amplitude 4 gauss, modulation frequency 100 KHz. […] The EPR analysis was conduced in the presence of irons and the reductants.

The target in data set [3] is T2, p53R2/M1 (p53R2 and hRRM1 reconstituted RNR) (Homo sapiens, UniProt Q7LG56).
T2 construct: 6xHis; made in house
T2 sequence (Q7LG56 1-351): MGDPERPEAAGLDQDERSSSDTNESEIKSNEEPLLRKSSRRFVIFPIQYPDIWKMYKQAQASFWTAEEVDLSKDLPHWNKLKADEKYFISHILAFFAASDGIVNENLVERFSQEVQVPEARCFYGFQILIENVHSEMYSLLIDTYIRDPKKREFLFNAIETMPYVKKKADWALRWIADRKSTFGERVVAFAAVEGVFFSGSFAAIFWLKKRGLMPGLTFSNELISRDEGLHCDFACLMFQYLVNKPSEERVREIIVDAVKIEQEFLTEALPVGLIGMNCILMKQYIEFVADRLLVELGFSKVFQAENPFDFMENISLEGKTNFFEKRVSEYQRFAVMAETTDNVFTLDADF
The experiment in a line: In vitro RNR activity assay with reconstituted p53R2/hRRM1 ([3H]CDP reduction). The class given is biochemical. The following applies: read-out: In vitro RR activity (IC50 ± sd) p53R2/M1. As to the method:
as §1, §2

The target of data set [4] is T3, M2/M1 (hRRM2 and hRRM1 reconstituted RNR) (Homo sapiens, UniProt P31350).
T3 construct: 6xHis; made in house
T3 sequence (P31350 1-389): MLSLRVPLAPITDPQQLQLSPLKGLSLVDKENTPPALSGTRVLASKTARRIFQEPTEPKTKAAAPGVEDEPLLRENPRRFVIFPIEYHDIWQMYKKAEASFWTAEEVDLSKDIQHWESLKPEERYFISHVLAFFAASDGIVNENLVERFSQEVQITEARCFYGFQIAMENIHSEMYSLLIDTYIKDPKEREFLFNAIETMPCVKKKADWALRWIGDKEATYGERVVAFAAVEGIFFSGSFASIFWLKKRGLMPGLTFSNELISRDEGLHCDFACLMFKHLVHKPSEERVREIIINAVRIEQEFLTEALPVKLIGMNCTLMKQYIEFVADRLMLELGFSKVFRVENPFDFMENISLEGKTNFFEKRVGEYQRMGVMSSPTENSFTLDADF
The experiment in a line: In vitro RNR activity assay with reconstituted hRRM2/hRRM1 ([3H]CDP reduction). The data set is classed as biochemical. The following applies: read-out: In vitro RR activity (IC50 ± sd) M2/M1. The method, then:
as §1, §2

The target in another data set is T4, p53R2/hRRM1 (Homo sapiens, UniProt Q7LG56, Y124W).
T4 construct: 6xHis; made in house; host or cells: E. coli BL21(DE3), pET-p53R2 template
T4 sequence (Q7LG56 1-351 Y124W): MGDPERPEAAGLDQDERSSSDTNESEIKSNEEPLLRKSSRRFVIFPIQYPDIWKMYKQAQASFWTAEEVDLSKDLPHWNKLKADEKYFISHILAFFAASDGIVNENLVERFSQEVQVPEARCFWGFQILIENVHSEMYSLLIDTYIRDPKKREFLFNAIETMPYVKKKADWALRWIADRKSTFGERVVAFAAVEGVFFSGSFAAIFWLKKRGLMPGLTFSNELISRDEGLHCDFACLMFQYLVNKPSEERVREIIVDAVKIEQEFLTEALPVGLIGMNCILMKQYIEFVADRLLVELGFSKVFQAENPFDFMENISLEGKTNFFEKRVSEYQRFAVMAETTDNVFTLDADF
The experiment in a line: RNR activity of mutated p53R2 proteins with hRRM1 (modified [3H]CDP reduction assay). The class given is biochemical. As to the method:
The activities of hRRM2/hRRM1 and p53R2/hRRM1 were measured using a modified [^3H] CDP reduction assay. The reaction mixture contained 0.125 μM [^3H] CDP (0.3 μCi), 50 mM of HEPES (pH 7.2), 6 mM DTT, 4 mM MgOAC, 2 mM ATP, 0.05 mM CDP, 100 mM KCl, 0.24 mM NADPH. The enzyme activity was measured in the presence of 0.5 μM of M1 protein and 1 μM of hRRM2 or p53R2 proteins with a total sample volume of 100 μl. After incubation at 37° C. for 15-30 minutes and dephosphorylation with phosphodiesterase, the supernatant was analyzed by HPLC using a C-18 reversed phase column to separate [^3H] cytidine and [^3H] deoxycytidine. Radioactivity of the HPLC aliquots was measured with a β-RAM-2B Flow-through radioisotope beta/gamma detector (IN/US Systems, Tampa, Fla.). The enzyme activity was measured as relative activity of dCDP/(CDP+dCDP)% (i. e., the percentage of dCDP of all ribonucleoside diphosphates and deoxyribonucleoside diphosphates). Results were normalized against those of wild type proteins, which were considered having 100% conversion of CDP to dCDP. Each value is the average of two to three determinations with deviations <0.3%.

Where two headings read alike, the source gives them in different places.

Take `NC(=O)NO` [HU, Hydroxyurea]: the “Inhibition of reconstituted RNR activity (in words)” value in data set [1] is recorded as “significantly inhibited the activity of RNR containing hRRM2 or p53R2”. Further, the IC50 in data set [1] (compound in 1% DMSO) was 153 µM; in data set [1] (compound in 2.5% DMSO) it was 150 µM; in data set [1] (compound in dH2O + FeCl3), 1270 µM; in data set [1] (compound in dH2O), 178 µM; in data set [3] (compound in 1% DMSO), 159 ± 6.82 µM; in data set [3] (compound in 2.5% DMSO), 146 ± 6.06 µM. Also, the IC50 is 1990 ± 71.2 µM in data set [3] (compound in dH2O + FeCl3); 190 ± 6.43 µM in data set [3] (compound in dH2O); 148 ± 7.34 µM in data set [4] (compound in 1% DMSO); 155 ± 6.59 µM in data set [4] (compound in 2.5% DMSO); 556 ± 24.1 µM in data set [4] (compound in dH2O + FeCl3); 165 ± 7.95 µM in data set [4] (compound in dH2O). For the same molecule, in data set [2], the “Quenching of tyrosyl radical EPR signal” value is “quenched the tyrosyl radicals of both RNR small subunits”.

B1: Y124W-p53R2: p53R2 mutant with Tyr124 replaced by tryptophan (SEQ ID NO: 19) (protein, listed as Homo sapiens)
chain: MGDPERPEAAGLDQDERSSSDTNESEIKSNEEPLLRKSSRRFVIFPIQYPDIWKMYKQAQASFWTAEEVDLSKDLPHWNKLKADEKYFISHILAFFAASDGIVNENLVERFSQEVQVPEARCFWGFQILIENVHSEMYSLLIDTYIRDPKKREFLFNAIETMPYVKKKADWALRWIADRKSTFGERVVAFAAVEGVFFSGSFAAIFWLKKRGLMPGLTFSNELISRDEGLHCDFACLMFQYLVNKPSEERVREIIVDAVKIEQEFLTEALPVGLIGMNCILMKQYIEFVADRLLVELGFSKVFQAENPFDFMENISLEGKTNFFEKRVSEYQRFAVMAETTDNVFTLDADF
For the molecule B1, the “Enzyme activity retained, fraction of the wild type protein” value in the data set with p53R2/hRRM1 was 1/3.

For the origin of these results see patent publication US20050260637A1, “Drug screening” (priority 2004, published 2005).
